The target in the first assay is human P2X3 receptor (Homo sapiens (Human), UniProt P56373). The assay is described as follows: Evaluation of human P2X3 receptor inhibitory activity (Fluo-3 calcium fluorescence, FDSS 3000, ATP stimulation).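 Note: stimulus was 50 nM ATP with fluorescence followed for 3 min, and the response per well was peak post-ATP fluorescence divided by the reading at measurement start.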 The class given is cell-based. Particulars: C6BU-1 cells stably expressing human P2X3 receptor.
Chain of human P2X3 receptor (P56373 whole entry): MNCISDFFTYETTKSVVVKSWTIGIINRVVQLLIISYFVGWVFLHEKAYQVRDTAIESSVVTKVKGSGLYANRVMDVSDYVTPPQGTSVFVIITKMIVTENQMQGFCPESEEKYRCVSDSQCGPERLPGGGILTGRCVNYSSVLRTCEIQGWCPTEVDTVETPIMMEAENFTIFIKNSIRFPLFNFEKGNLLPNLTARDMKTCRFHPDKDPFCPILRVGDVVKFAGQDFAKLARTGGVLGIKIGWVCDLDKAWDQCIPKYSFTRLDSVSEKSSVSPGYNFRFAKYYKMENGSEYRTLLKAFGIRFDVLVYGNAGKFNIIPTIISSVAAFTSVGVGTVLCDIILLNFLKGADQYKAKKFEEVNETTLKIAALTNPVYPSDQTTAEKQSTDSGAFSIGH
In the case of `CCn1c(=O)[nH]/c(=N\c2ccc(Oc3cc(C(=O)O)on3)cc2)n(Cc2ccc(Cl)cc2)c1=O` [Compound I-1963], the IC50 worked out at 13 nM. On the same count and under the same terms, next, `CCn1c(=O)[nH]/c(=N\c2ccc(Oc3ccc(C)c(C(=O)O)c3)cc2)n(Cc2ccc(Cl)cc2)c1=O` [Compound I-2017]: 41 nM.

`Cc1ccc(Cn2c(=O)n(CCC(=O)O)c(=O)[nH]/c2=N\c2ccc(CC(C)C)c(Cl)c2)cc1` [Compound I-1427]: the IC50 stood at 8 nM. Same read-out and setting: as for `CC(C)Oc1ccc(/N=c2\[nH]c(=O)n(CCC(=O)NN)c(=O)n2Cc2ccc(Cl)cc2)cc1F` [Compound I-0644, 1-(4-chlorobenzyl)-6-(3-fluoro-4-isopropoxyphenylimino)-3-(2-hydrazinecarbonylethyl)-1,3,5-triazinane-2,4-dion], the figure is 40 nM. In the case of `Cc1cc(/N=c2\[nH]c(=O)n(CCCC(=O)NCCO)c(=O)n2Cc2ccc(Cl)cc2)ccc1OC(C)C` [Compound I-0788], the IC50 was found to be 32 nM. Same read-out and setting: as for `COc1cc(/N=c2\[nH]c(=O)n(CC(CO)CO)c(=O)n2Cc2ccc(Cl)cc2)ccc1OC(C)C` [Compound I-1985], the figure is 11 nM; as for `Cc1ccc(Cn2c(=O)n(C[C@H](C)C(=O)O)c(=O)[nH]/c2=N\c2ccc(OC(C)C)c(C)c2)cc1` [Compound I-0680], 26 nM. The same measure, in the same setting: as for `COC(=O)c1ccc(Oc2ccc(/N=c3\[nH]c(=O)n(C)c(=O)n3Cc3ccc(C)cc3)cc2)cc1` [Compound I-2030], the figure is 6 nM.

With `CCn1c(=O)[nH]/c(=N\c2ccc(Oc3cc(F)cc(C(=O)O)c3)cc2)n(Cc2ccc(Cl)cc2)c1=O` [Compound I-2223], the IC50 was 6 nM.

`CC[C@H](C)Oc1ccc(/N=c2\[nH]c(=O)n(C[C@H](C)C(=O)OC)c(=O)n2Cc2ccc(Cl)cc2)cc1` [Compound I-0728]: the IC50 was 14 nM. On the same count and under the same terms, next, `Cc1ccc(Cn2c(=O)n(C[C@H](C)C(=O)O)c(=O)[nH]/c2=N\c2ccc3nc(C)oc3c2)cc1` [Compound I-1279]: 158 nM. On the same count and under the same terms, as for `CCn1c(=O)[nH]/c(=N\c2ccc(Oc3cccc(CO)c3)cc2)n(Cc2ccc(Cl)cc2)c1=O` [Compound I-2065], the figure is 54 nM. Still for that read-out and setting: next, `O=c1[nH]/c(=N\c2ccc3nc(C4CC4)sc3c2)n(Cc2ccc(Cl)cc2)c(=O)n1CCO` [Compound I-2026]: 22 nM; `CCCc1ccc(/N=c2\[nH]c(=O)n(C[C@H](C)C(=O)O)c(=O)n2Cc2ccc(Cl)cc2)cc1` [Compound I-0627]: 91 nM. Take `Cc1cc2cc(/N=c3\[nH]c(=O)n([C@@H](C)[C@@H](C)C(=O)O)c(=O)n3Cc3ccc(Cl)cc3)ccc2o1` [Compound I-1351]: the IC50 amounted to 41 nM. The same measure, in the same setting: as for `O=C(O)c1cc(Oc2ccc(/N=c3\[nH]c(=O)[nH]c(=O)n3Cc3ccc(Cl)cc3)cc2F)ccn1` [Compound I-2141], the figure is 7 nM; as for `CCOc1ccc(/N=c2\[nH]c(=O)n(C[C@@H](C)C(=O)OC)c(=O)n2CC2CCCCC2)cc1Cl` [Compound I-0632], 11 nM.

The assay is the same for the next values; noted with them: C6BU-1 cells stably expressing human P2X3 receptor, Fluo-3 fluorescence, FDSS 3000.
Consider `Cc1ccc(Cn2c(=O)n([C@@H](C)[C@@H](C)C(=O)O)c(=O)[nH]/c2=N\c2ccc(OCC3CC3)c(Cl)c2)cc1` [Compound I-0975], for which the IC50 is 43 nM.

Take `Cc1nc2ccc(/N=c3\[nH]c(=O)n(CC4(C)COC(C)(C)OC4)c(=O)n3Cc3ccc(Cl)cc3)cc2s1` [Compound I-1635]: the IC50 was found to be 5 nM. Same read-out and setting: as for `COC(=O)[C@@H](C)Cn1c(=O)[nH]/c(=N\c2ccc(Oc3cccnc3)cc2)n(Cc2ccc(C)cc2)c1=O` [Compound I-1126], the figure is 8 nM; as for `CCc1oc2ccc(/N=c3\[nH]c(=O)n(CC4(C(=O)O)CC4)c(=O)n3Cc3ccc(C)cc3)cc2c1C` [Compound I-1555], 16 nM. On the same count and under the same terms, as for `CCc1nc2ccc(/N=c3\[nH]c(=O)n(C[C@H](C)NC(C)=O)c(=O)n3Cc3ccc(Cl)cc3)cc2s1` [Compound I-1665], the figure is 7 nM; as for `Cc1ccc(Cn2c(=O)n(C[C@H](C)C(=O)O)c(=O)[nH]/c2=N\c2ccc(OC3CC3)c(Cl)c2)cc1` [Compound I-1607], 35 nM; as for `Cc1cc(/N=c2\[nH]c(=O)n(C3CNC3)c(=O)n2Cc2ccc(Cl)cc2)ccc1OC(C)C` [Compound I-1709], 167 nM.

Turning to `Cc1ccc(Cn2c(=O)n(C[C@H](C)C(=O)O)c(=O)[nH]/c2=N\c2ccc(Oc3ccncc3)cc2)cc1` [Compound I-1122], the IC50 turned out to be 8 nM. Same read-out and setting: as for `CCOC(=O)CCCn1c(=O)[nH]/c(=N\c2ccc3nc(CC)sc3c2)n(Cc2ccc(C)cc2)c1=O` [Compound I-1629], the figure is 4 nM. Same read-out and setting: as for `COC(=O)[C@@H](C)Cn1c(=O)[nH]/c(=N\c2cccc(CC(C)C)c2)n(Cc2ccc(C)cc2)c1=O` [Compound I-1132], the figure is 586 nM; as for `Cc1ccc(Cn2c(=O)n(C[C@H](C)C(=O)O)c(=O)[nH]/c2=N\c2ccc(C=C3CCCC3)cc2)cc1` [Compound I-1098], 74 nM; as for `C[C@@H](C(=O)O)[C@H](C)n1c(=O)[nH]/c(=N\c2ccc3c(c2)CCCC3=O)n(Cc2ccc(Cl)cc2)c1=O` [Compound I-1784], 950 nM. On the same count and under the same terms, next, `Cc1cc(/N=c2\[nH]c(=O)n(CC3(CO)COC3)c(=O)n2Cc2ccc(Cl)cc2)ccc1OC(C)C` [Compound I-0906]: 8 nM; `COc1ccc(Oc2ccc(/N=c3\[nH]c(=O)n(CC(CO)CO)c(=O)n3Cc3ccc(Cl)cc3)cc2)cn1` [Compound I-1843]: 4 nM; `COC(=O)[C@@H](C)Cn1c(=O)[nH]/c(=N\c2ccc(C=C(C)C)c(C)c2)n(Cc2ccc(Cl)cc2)c1=O` [Compound I-0948]: 19 nM. For the compound `CCOC(=O)CCn1c(=O)[nH]/c(=N\c2ccc(Oc3ccc(F)cc3)cc2)n(Cc2ccc(Cl)cc2)c1=O` [Compound I-1872], the IC50 amounted to 15 nM. On the same count and under the same terms, next, `Cc1cc(/N=c2\[nH]c(=O)n(C[C@H](C)C(=O)O)c(=O)n2Cc2ccc(Cl)cc2)ccc1CCC1CC1` [Compound I-1024]: 161 nM.

With `CCC[C@@H](C)Oc1ccc(/N=c2\[nH]c(=O)n(C[C@H](C)C(=O)OC)c(=O)n2Cc2ccc(C)cc2)cc1` [Compound I-1047], the IC50 is 154 nM. Consider `C[C@H](Cn1c(=O)[nH]/c(=N\c2ccc(OCC3CC3)cc2)n(Cc2ccc(Cl)cc2)c1=O)C(=O)O` [Compound I-1037], for which the IC50 amounted to 93 nM.

As for `COC(=O)C(C)(C)Cn1c(=O)[nH]/c(=N\c2ccc3nc(C)sc3c2)n(Cc2ccc(C)cc2)c1=O` [Compound I-1571], the 50% inhibitory concentration (IC50) worked out at 4 nM.

Take `CCc1nc2ccc(/N=c3\[nH]c(=O)n(CCO)c(=O)n3Cc3ccc(Cl)cc3)cc2s1` [Compound I-1663]: the IC50 worked out at 8 nM.

Still in this assay, the particulars now being: human P2X3 receptor, Test Example 1.
With `CCn1c(=O)[nH]/c(=N\c2ccc(Oc3ncc(C(=O)O)cn3)cc2)n(Cc2ccc(Cl)cc2)c1=O` [Compound I-2323], the IC50 is 16 nM. Regarding `Cc1ccc(Cn2c(=O)n(C[C@H](C)C(=O)O)c(=O)[nH]/c2=N\c2cc(Cl)cc(Cl)c2)cc1` [Compound I-1500], the IC50 came to 897 nM. The same measure, in the same setting: as for `CCn1c(=O)[nH]/c(=N\c2ccc(Oc3ccc(C(=O)O)cc3)nc2)n(Cc2ccc(Cl)cc2)c1=O` [Compound I-2621], the figure is 265 nM. On the same count and under the same terms, as for `CCn1c(=O)[nH]/c(=N\c2ccc(Oc3cccc(C#N)n3)cc2)n(Cc2ccc(Cl)cn2)c1=O` [Compound I-2373], the figure is 33 nM. `COc1cc(/N=c2\[nH]c(=O)n(C)c(=O)n2Cc2ccc(Cl)cc2)ccc1Oc1cccc(C(=O)O)n1` [Compound I-2424]: the IC50 turned out to be 20 nM. Same read-out and setting: as for `CNC(=O)CCn1c(=O)[nH]/c(=N\c2ccc(Oc3cccc(F)n3)cc2)n(Cc2ccc(Cl)cc2)c1=O` [Compound I-2655], the figure is 5 nM; as for `O=C(O)c1cc(Oc2ccc(/N=c3\[nH]c(=O)n(C4CCC4)c(=O)n3Cc3ccc(Cl)cc3)cc2)ccn1` [Compound I-2484], 8 nM; as for `CC(CO)(CO)Cn1c(=O)[nH]/c(=N\c2ccc(Oc3ccsn3)cc2)n(Cc2ccc(Cl)cc2)c1=O` [Compound I-2531], 4 nM. Still for that read-out and setting: next, `CCn1c(=O)[nH]/c(=N\c2ccc(Oc3cccc(C(=O)O)n3)cc2)n(Cc2ncc(Cl)cn2)c1=O` [Compound I-2553]: 216 nM; `Cn1c(=O)[nH]/c(=N\c2ccc(Oc3cccc(C#N)n3)cc2)n(Cc2ccc(Cl)cc2)c1=O` [Compound I-2374]: 8 nM; `N#Cc1ccc(Oc2ccc(/N=c3\[nH]c(=O)n(CCO)c(=O)n3Cc3ccc(Cl)cc3)cc2)cc1` [Compound I-2545]: 7 nM.

Take `CCn1c(=O)[nH]/c(=N\c2ccc(Oc3ccc(C(N)=O)cn3)cc2)n(Cc2ccc(C)cc2)c1=O` [Compound I-2398]: the IC50 was 3 nM.

In the case of `Cn1c(=O)[nH]/c(=N\c2ccc(Oc3ccc(C(=O)O)nn3)cc2)n(Cc2ccc(Cl)cc2)c1=O` [Compound I-2381], the IC50 was 54 nM. Regarding `O=C(O)Cn1c(=O)[nH]/c(=N\c2ccc(Oc3ccon3)cc2)n(Cc2ccc(Cl)cc2)c1=O` [Compound I-2504], the IC50 was determined as 370 nM. Same read-out and setting: next, `CCn1c(=O)[nH]/c(=N\c2ccc(Oc3cc(C#N)ccn3)cc2)n(Cc2ccc(C)cc2)c1=O` [Compound I-2300]: 3 nM; `COC(=O)CCn1c(=O)[nH]/c(=N\c2ccc(Oc3ccc(C#N)cn3)cc2)n(Cc2ccc(C)cc2)c1=O` [Compound I-2636]: 2 nM; `CNC(=O)Cn1c(=O)[nH]/c(=N\c2ccc(Oc3ncc(C)s3)cc2)n(Cc2ccc(Cl)cc2)c1=O` [Compound I-2648]: 14 nM.

As to `Cn1c(=O)[nH]/c(=N\c2ccc(Oc3cc(C(=O)O)ccn3)cc2)n(Cc2ccc(Cl)cc2)c1=O` [Compound I-2391], the IC50 amounted to 29 nM. The same measure, in the same setting: next, `COC(=O)CCn1c(=O)[nH]/c(=N\c2ccc(Oc3cccc(C#N)n3)cc2)n(Cc2ccc(C)cc2)c1=O` [Compound I-2633]: 2 nM. Same read-out and setting: as for `CCc1oc2ccc(/N=c3\[nH]c(=O)n(CCC(=O)O)c(=O)n3Cc3ccc(C)cc3)cc2c1C` [Compound I-1508], the figure is 18 nM.

`CCn1c(=O)[nH]/c(=N\c2ccc(O[C@H]3CN[C@H](C(=O)OC)C3)cc2)n(Cc2ccc(Cl)cc2)c1=O` [Compound I-2277]: the IC50 came to 107 nM.

Values taken from patent US9718790B2, “Triazine derivative and pharmaceutical composition having an analgesic activity comprising the same” (SHIONOGI & CO., LTD., priority 2010, dated 2017).
